The test system of test [1] is fully kindled Wistar rats. Kind of test: Amygdala-kindling rat model. Format: in vivo. The note with it: challenge 1 h. The procedure:
Compounds were formulated in a 10% polyethylene glycol 400 (PEG 400) / 90% aqueous solution of 0.5 % methylcellulose (MC 0.5%). Firstly drugs are dissolved in PEG 400 and then suspended in MC 0.5 % for oral gavage at Xmg/5 mL/kg (X see table).
• 1. Procedure: Adult male Wistar rats (Harlan Laboratories, Netherlands, or Charles Rivers, Germany; body weight 300-350 g) were stereotaxically implanted with twisted bipolar plastic-coated stainless steel electrode (MS333-2-BIU 10 mm, Plastics One) into the right basolateral amygdala under isoflurane anesthesia. To place the electrode, trepanations were made in the skull and the electrode was lowered into the right basolateral amygdala (from bregma: anteriorposterior (AP): -2.5 mm, medio-lateral (ML): -3.5 mm, dorso-ventral (DV): -8.6 mm; α=10^0) and secured to the skull with screws and dental acrylate. After one week of recovery, they were handled daily and habituated over one week to the kindling setup. Kindling procedure: For a kindling session each rat was placed individually into a smooth acrylic plastic, round-bottomed bowl (0 36 cm, height 36 cm, BASi movement-responsive caging system) and its intracranial implanted electrode was connected to the stimulator (STG4008, Multichannel Systems GmbH) and the recording devices (PowerLab 8/35, ADInstruments Ltd) via a cable (335-340/3 (C), Plastics One). For the kindling procedure, each rat was exposed once daily to an electrical stimulation and the behavioral symptoms of the evoked seizure were observed and classified according to the modified Racine scale (stage 0, arrest, wet dog shakes, normal behaviour; stage 1, facial twitches: nose, lips, eyes; stage 2, chewing, head nodding; stage 3, forelimb clonus; stage 4, rearing, falling on forelimbs; stage 5, rearing, falling on side or back, rolling). […] The duration of electroencephalographic seizures (afterdischarge, AD) was recorded using LabChart7 Pro software (ADInstruments Ltd). Simultaneously, videos were recorded to evaluate seizure stage (SS). • 2. Compound testing: Acute drug effects were evaluated in groups of 6-8 fully kindled rats in a randomized cross-over design with 48h between drug and vehicle applications. Following oral administration of drug or vehicle, drug testing included determination of the afterdischarge threshold (the minimal stimulation intensity necessary to evoke an afterdischarge (electroencephalographically measured neuronal hyper-synchronous activity with an amplitude 2-times higher than baseline amplitude and a frequency of […]) of at least 3 sec duration) and monitoring electroencephalographic and behavioral correlates of the evoked seizure at ADT (afterdischarge threshold), including AD duration and SS, by a experimenter blind to treatment assignment.

Test [2] concerns the target T1, Kv7.2/7.3 (human KCNQ2 and KCNQ3 genes) in HEK293 cells (Homo sapiens, UniProt O43525+O43526).
T1 construct: host or cells: HEK293
Kind of test: Kv7.2/3 assay (FLIPR potassium assay, agonist mode). Particulars: Kv7.2/7.3 activation, responses relative to Flupirtine. Format: cell-based. The procedure: HEK293 cells were stably transfected with the appropriate ion channel cDNA(s) (human KCNQ2 and KCNQ3 genes). Cells were cultured in Dulbecco’s Modified Eagle Medium /Nutrient mixture F-12 (D-MEM/F-12) supplemented with 10% fetal bovine serum, 100 U/mL penicillin G sodium, 100 µg/mL streptomycin sulfate and selection antibiotics. FLIPR Test Procedure: For FLIPR assay, cells were plated in 384-well black clear-bottomed microtiter plates (BD Biocoat Poly-D-Lysine Multiwell Cell Culture Plate) at 15′000 to 30′000 cells per well. Cells were incubated at 37° C. overnight or until cells reached sufficient density in the wells (near confluent monolayer) to use in fluorescence assays. […] Assays were performed with the FLIPR potassium assay kit (Molecular Devices) according to the manufacturer’s instructions. Dye-loading: Growth media was removed and replaced with 20 µL of dye loading buffer for 60 min at room temperature. FLIPR Recording (agonist mode): Stock solutions of test compounds were prepared at a concentration of 33.3 mM in DMSO. 5 µL of 5x concentrated test, vehicle, or control compounds solutions prepared in the stimulation buffer (K^+-free buffer with 5 mM TI^+) were added to each well and fluorescence recording was continued for 5 min. The agonist effect (EC50 and % effect) of test or control compounds on Kv7 channels was determined as follows: Raw data was exported using Screenworks® 4.2 software and the fluorescence traces were analysed using Microsoft Excel (Microsoft Corp., Redmond, WA). The test compounds responses were expressed as % of maximum response of the control compound Flupirtine (Sigma-Aldrich), which was tested at concentrations ranging from 0.03 to 100 µM. Concentration-response data were fitted to a Hill equation. Non-linear least squares fits were made assuming a simple binding model. If appropriate, fits were weighted by the standard deviation. No assumptions about the fit parameters were made; the fit parameters were determined by the algorithm.

In general, EC50 refers to the midpoint of the concentration-response curve. For the compound `O=C(NCc1cccc(C(F)(F)F)c1)NC1CC(C(F)F)C1` (single isomer, unassigned) [Example 53, 1-(3-(Difluoromethyl)Cyclobutyl)-3-(3-(Trifluoromethyl)Benzyl)Urea], in test [1] (30 mg/kg po), the “AD duration [% vs veh]” value is recorded as -93 % vs veh and the “Seizure stage [% vs veh]” value is reported as -81 % vs veh. Further, in test [2], it took 0.082 µM to reach a half-maximal effect (EC50).
`O=C(NCc1cccc(C(F)(F)F)c1)NC12CC(C(F)F)(C1)C2` [Example 47, 1-(3-Difluoromethyl-Bicyclo[1.1.1]Pent-1-yl)-3-(3-Trifluoromethyl-Benzyl)-Urea]: in test [1] (10 mg/kg po), the “AD duration [% vs veh]” value is given as -85 % vs veh and the “Seizure stage [% vs veh]” value is -70 % vs veh. The compound also came in with an EC50 in test [2] of 0.059 µM.

The record behind these values is patent US20230303486A1, “CYCLOBUTYL-UREA DERIVATIVES” (Idorsia Pharmaceuticals Ltd, priority 2020, published 2023).
